# According to paper PMC8424300, “Identification of novel microtubule inhibitors effective in fission yeast and human cells and their effects on breast cancer cell lines” (Open Biology, 2021):
# How the values were obtained:
# MDR-sup fission yeast = assay: Phenotypic assay of microtubule organization in MDR-sup strain expressing GFP-atb2; format: cell-based, Schizosaccharomyces pombe; settings: 5 µM compound for 3 h, living cells
# Procedure: We have previously screened a collection of 10 371 small molecules to identify compounds that inhibit the growth of a multiple-drug-sensitive fission yeast strain (MDR-sup). We selected 248 compounds (2.4% of the total) that inhibited fission yeast cell growth rate by at least 50% (figure 1a) and subsequently conducted a phenotypic screen of these to identify drugs that affect microtubule organization (figure 1b). After the MDR-sup cells were treated with 5 µM of each compound for 3 h, microtubules were monitored using GFP tagged α-tubulin Atb2 and live-cell fluorescence microscopy. In untreated interphase cells, microtubules form long cytoplasmic arrays that run parallel to the long cellular axis, and in mitotic cells, microtubules form a bipolar spindle in the nucleus and the cytoplasmic microtubules disappear (figure 1c(i), arrow). […] This screen identified 34 compounds that induced cytological phenotypes indicative of defects in microtubule organization or function.
# Figure 1. Phenotypic screening in MDR-sup fission yeast (a). Growth assay screening using MDR-sup strain. The optical density was measured with 20 µM of each compound and 248 compounds that gave at least 50% growth inhibition were used for further phenotyping marked by the red lines. Growth was normalized to DMSO-treated cells. (b) Schematic representation of the screening workflow. (c) Examples of the phenotypic assay using L1, P2 and B8 in the MDR-sup strain expressing GFP-atb2 (tubulin) are shown. Cells were incubated in 5 µM compound for 3 h and atb2 signals were detected in living cells. (i) Cells in absence of any compound. In interphase cells, α-tubulin Atb2 protein was detected in the nucleus and interphase microtubules, while mitotic spindles were detected in mitotic cells (arrows). (ii) In the presence of L1, microtubules were depolymerized and tubulin signals were detected distributed throughout the nucleus. (iii) In the presence of P2, short spindles were detected but anaphase spindles were not. (iv) In the presence of B8, interphase microtubules were not detected, while, dots were detected. […]
# CAL51 cells = assay: Clonogenic (colony-forming) assay; format: cell-based, human; settings: 12 h exposure, 9 days growth
# Procedure: Finally, a clonogenic assay was used to further evaluate the synergy effects between the L1 and Plk1 inhibitors to inhibit colony formation of breast cancer CAL51 cells after a 12 h drug exposure. The percentages of colony formation of cells treated with 0.1 nM BI2536 alone and 0.5 µM L1 alone were 89% and 67%, respectively, while cells treated with both 0.1 nM BI2536 and 0.5 µM L1 together were 2% (figure 10) indicating strong synergetic effects in colony formation.
# Figure 10. Quantification of the colony formation experiments (n = 3) after a 12 h exposure. CAL51 cells were treated with vehicle control, 0.1 nM BI2536, 0.5 µM L1 or 0.1 nM BI2536 and 0.5 µM L1 for 12 h. Cells were grown for 9 days in fresh media after 12 h exposure. Mean ± s.e.m. (n = 3) is shown.
# CAL51 cells were plated at a density of 200 cells per 60 mm tissue culture dish. After 24 h, they were treated with vehicle (DMSO), 0.1 nM BI2538, 0.5 µM L1 or the combination of 0.1 nM BI2538 and 0.5 µM L1, respectively, for 12 h. After an exposure, the cells were washed with warm sterile PBS, and incubated for additional 9 days in fresh media. After the incubation, cells were fixed and stained with a 20% MeOH: 0.01% crystal violet solution for 30 min. Colonies were counted using a stereomicroscope in three independent experiments.
compound,measurement,setting,value
COc1cc(Br)cc2c1OC(c1ccc3c(c1)OCO3)C([N+](=O)[O-])=C2 (stereo not drawn) [L1],microtubule phenotype (GFP-atb2 tubulin signal),MDR-sup fission yeast,"microtubules are undetectable, and α-tubulin accumulates in the nucleus"
same,percentage of colony formation,CAL51 cells; 0.1 nM BI2536 and 0.5 µM L1 together,2%
same,percentage of colony formation,CAL51 cells; 0.5 µM L1 alone,67%
